Values quoted from earlier work in patent publication US20020155136A1, “MEDICINE CONTAINING YOHIMBINE AND ARGININE FOR TREATING ERECTILE DYSFUNCTION” (priority 1997, published 2002).

What was measured:
[1] = tested on: impotence of psychogenic origin
erectile dysfunction = conditions: 2800 mg per day; Zorgniotti and Lizza 1994

| Compound | side effects observed ([1]; for relatively large doses, The Medical Letter 1995) | improvements, proportion of cases ([1]; impotence of psychogenic origin, published studies, results controversial) | favourable effect on erectile dysfunction, proportion of cases (erectile dysfunction) |
| --- | --- | --- | --- |
| COC(=O)[C@@H]1[C@H]2C[C@H]3c4[nH]c5ccccc5c4CCN3C[C@@H]2CC[C@@H]1O [yohimbine] | vertigo, anxiety, nervousness, headaches, insomnia and an increase in arterial pressure | 35 to 45 % of cases | – |
| N=C(N)NCCC[C@H](N)C(=O)O [L-arginine] | – | – | approximately 40 % of cases |
